Tested on: Genes belonging to other category
Assay: DNA chip mRNA expression in yeast, genes belonging to other category (Table 9)
Assay type: cell-based, Saccharomyces cerevisiae S288C
In short: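 Expression change after 2 h toxicant exposure (growth-inhibiting, sub-lethal) of log-phase S. cerevisiae S288C at 25° C. Oligo-dT-purified mRNA was labeled with Cy3-dUTP or Cy5-dUTP and hybridized >12 h at 65° C. to a genome-wide chip; ratio of scanned fluorescence to control.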

O=[N+]([O-])c1cc[n+]([O-])c2ccccc12 [(5), 4-nitroquinolin-N-oxide]
The level of expressed mRNA in the presence of chemical substance/The level of expressed mRNA in the absence of chemical substance (yeast gene YAL055W): 1.4
The level of expressed mRNA in the presence of chemical substance/The level of expressed mRNA in the absence of chemical substance (yeast gene YAR009C): 1.4
The level of expressed mRNA in the presence of chemical substance/The level of expressed mRNA in the absence of chemical substance (yeast gene YAR010C): 1.0
The level of expressed mRNA in the presence of chemical substance/The level of expressed mRNA in the absence of chemical substance (yeast gene YAR062W): 1.0
The level of expressed mRNA in the presence of chemical substance/The level of expressed mRNA in the absence of chemical substance (yeast gene YBL005W-A): 1.3
The level of expressed mRNA in the presence of chemical substance/The level of expressed mRNA in the absence of chemical substance (yeast gene YBL041W): 1.6
The level of expressed mRNA in the presence of chemical substance/The level of expressed mRNA in the absence of chemical substance (yeast gene YBL043W): 1.1
The level of expressed mRNA in the presence of chemical substance/The level of expressed mRNA in the absence of chemical substance (yeast gene YBL078C): 0.7
The level of expressed mRNA in the presence of chemical substance/The level of expressed mRNA in the absence of chemical substance (yeast gene YBL101C): 1.0
The level of expressed mRNA in the presence of chemical substance/The level of expressed mRNA in the absence of chemical substance (yeast gene YBR009C): 1.4
The level of expressed mRNA in the presence of chemical substance/The level of expressed mRNA in the absence of chemical substance (yeast gene YBR212W): 1.0
The level of expressed mRNA in the presence of chemical substance/The level of expressed mRNA in the absence of chemical substance (yeast gene YBR214W): 1.1
The level of expressed mRNA in the presence of chemical substance/The level of expressed mRNA in the absence of chemical substance (yeast gene YBR283C): 1.4
The level of expressed mRNA in the presence of chemical substance/The level of expressed mRNA in the absence of chemical substance (yeast gene YBR290W): 1.0
The level of expressed mRNA in the presence of chemical substance/The level of expressed mRNA in the absence of chemical substance (yeast gene YCL020W): 0.5
The level of expressed mRNA in the presence of chemical substance/The level of expressed mRNA in the absence of chemical substance (yeast gene YCL027W): 1.2
The level of expressed mRNA in the presence of chemical substance/The level of expressed mRNA in the absence of chemical substance (yeast gene YCR004C): 1.2
The level of expressed mRNA in the presence of chemical substance/The level of expressed mRNA in the absence of chemical substance (yeast gene YCR039C): 1.9
The level of expressed mRNA in the presence of chemical substance/The level of expressed mRNA in the absence of chemical substance (yeast gene YCR062W): 1.4
The level of expressed mRNA in the presence of chemical substance/The level of expressed mRNA in the absence of chemical substance (yeast gene YCR071C): 1.2
The level of expressed mRNA in the presence of chemical substance/The level of expressed mRNA in the absence of chemical substance (yeast gene YCR088W): 1.1
The level of expressed mRNA in the presence of chemical substance/The level of expressed mRNA in the absence of chemical substance (yeast gene YCR096C): 2.1
The level of expressed mRNA in the presence of chemical substance/The level of expressed mRNA in the absence of chemical substance (yeast gene YDL008W): 1.8
The level of expressed mRNA in the presence of chemical substance/The level of expressed mRNA in the absence of chemical substance (yeast gene YDL018C): 1.8
The level of expressed mRNA in the presence of chemical substance/The level of expressed mRNA in the absence of chemical substance (yeast gene YDL137W): 1.8
The level of expressed mRNA in the presence of chemical substance/The level of expressed mRNA in the absence of chemical substance (yeast gene YDL192W): 1.4
The level of expressed mRNA in the presence of chemical substance/The level of expressed mRNA in the absence of chemical substance (yeast gene YDL238C): 0.9
The level of expressed mRNA in the presence of chemical substance/The level of expressed mRNA in the absence of chemical substance (yeast gene YDR055W): 1.7
The level of expressed mRNA in the presence of chemical substance/The level of expressed mRNA in the absence of chemical substance (yeast gene YDR084C): 1.2
The level of expressed mRNA in the presence of chemical substance/The level of expressed mRNA in the absence of chemical substance (yeast gene YDR085C): 0.9
The level of expressed mRNA in the presence of chemical substance/The level of expressed mRNA in the absence of chemical substance (yeast gene YDR104C): 1.3
The level of expressed mRNA in the presence of chemical substance/The level of expressed mRNA in the absence of chemical substance (yeast gene YDR115W): 1.4
The level of expressed mRNA in the presence of chemical substance/The level of expressed mRNA in the absence of chemical substance (yeast gene YDR259C): 1.0
The level of expressed mRNA in the presence of chemical substance/The level of expressed mRNA in the absence of chemical substance (yeast gene YDR315C): 0.9
The level of expressed mRNA in the presence of chemical substance/The level of expressed mRNA in the absence of chemical substance (yeast gene YDR358W): 1.4
The level of expressed mRNA in the presence of chemical substance/The level of expressed mRNA in the absence of chemical substance (yeast gene YDR373W): 1.8
The level of expressed mRNA in the presence of chemical substance/The level of expressed mRNA in the absence of chemical substance (yeast gene YDR378C): 1.0
The level of expressed mRNA in the presence of chemical substance/The level of expressed mRNA in the absence of chemical substance (yeast gene YDR388W): 0.7
The level of expressed mRNA in the presence of chemical substance/The level of expressed mRNA in the absence of chemical substance (yeast gene YDR403W): 1.2
The level of expressed mRNA in the presence of chemical substance/The level of expressed mRNA in the absence of chemical substance (yeast gene YDR432W): 1.6
The level of expressed mRNA in the presence of chemical substance/The level of expressed mRNA in the absence of chemical substance (yeast gene YDR481C): 1.0
The level of expressed mRNA in the presence of chemical substance/The level of expressed mRNA in the absence of chemical substance (yeast gene YDR510W): 0.7
The level of expressed mRNA in the presence of chemical substance/The level of expressed mRNA in the absence of chemical substance (yeast gene YEL042W): 0.7
The level of expressed mRNA in the presence of chemical substance/The level of expressed mRNA in the absence of chemical substance (yeast gene YEL066W): 0.8
The level of expressed mRNA in the presence of chemical substance/The level of expressed mRNA in the absence of chemical substance (yeast gene YER009W): 1.2
The level of expressed mRNA in the presence of chemical substance/The level of expressed mRNA in the absence of chemical substance (yeast gene YER021W): 1.4
The level of expressed mRNA in the presence of chemical substance/The level of expressed mRNA in the absence of chemical substance (yeast gene YER025W): 1.5
The level of expressed mRNA in the presence of chemical substance/The level of expressed mRNA in the absence of chemical substance (yeast gene YER039C): 1.5
The level of expressed mRNA in the presence of chemical substance/The level of expressed mRNA in the absence of chemical substance (yeast gene YER094C): 1.9
The level of expressed mRNA in the presence of chemical substance/The level of expressed mRNA in the absence of chemical substance (yeast gene YER107C): 1.3
The level of expressed mRNA in the presence of chemical substance/The level of expressed mRNA in the absence of chemical substance (yeast gene YER130C): 1.7
The level of expressed mRNA in the presence of chemical substance/The level of expressed mRNA in the absence of chemical substance (yeast gene YFL022C): 0.7
The level of expressed mRNA in the presence of chemical substance/The level of expressed mRNA in the absence of chemical substance (yeast gene YFL026W): 1.4
The level of expressed mRNA in the presence of chemical substance/The level of expressed mRNA in the absence of chemical substance (yeast gene YFL028C): 1.7
The level of expressed mRNA in the presence of chemical substance/The level of expressed mRNA in the absence of chemical substance (yeast gene YFL043C): 1.2
The level of expressed mRNA in the presence of chemical substance/The level of expressed mRNA in the absence of chemical substance (yeast gene YFR004W): 1.0
The level of expressed mRNA in the presence of chemical substance/The level of expressed mRNA in the absence of chemical substance (yeast gene YGL011C): 1.8
The level of expressed mRNA in the presence of chemical substance/The level of expressed mRNA in the absence of chemical substance (yeast gene YGL094C): 1.3
The level of expressed mRNA in the presence of chemical substance/The level of expressed mRNA in the absence of chemical substance (yeast gene YGL158W): 1.0
The level of expressed mRNA in the presence of chemical substance/The level of expressed mRNA in the absence of chemical substance (yeast gene YGL207W): 1.3
The level of expressed mRNA in the presence of chemical substance/The level of expressed mRNA in the absence of chemical substance (yeast gene YGL229C): 1.0
The level of expressed mRNA in the presence of chemical substance/The level of expressed mRNA in the absence of chemical substance (yeast gene YGR023W): 1.0
The level of expressed mRNA in the presence of chemical substance/The level of expressed mRNA in the absence of chemical substance (yeast gene YGR120C): 1.8
The level of expressed mRNA in the presence of chemical substance/The level of expressed mRNA in the absence of chemical substance (yeast gene YGR136W): 1.2
The level of expressed mRNA in the presence of chemical substance/The level of expressed mRNA in the absence of chemical substance (yeast gene YGR189C): 0.7
The level of expressed mRNA in the presence of chemical substance/The level of expressed mRNA in the absence of chemical substance (yeast gene YGR213C): 1.2
The level of expressed mRNA in the presence of chemical substance/The level of expressed mRNA in the absence of chemical substance (yeast gene YGR253C): 2.0
The level of expressed mRNA in the presence of chemical substance/The level of expressed mRNA in the absence of chemical substance (yeast gene YGR257C): 1.3
The level of expressed mRNA in the presence of chemical substance/The level of expressed mRNA in the absence of chemical substance (yeast gene YGR274C): 1.8
The level of expressed mRNA in the presence of chemical substance/The level of expressed mRNA in the absence of chemical substance (yeast gene YHR004C): 1.5
The level of expressed mRNA in the presence of chemical substance/The level of expressed mRNA in the absence of chemical substance (yeast gene YHR027C): 1.1
The level of expressed mRNA in the presence of chemical substance/The level of expressed mRNA in the absence of chemical substance (yeast gene YHR071W): 1.5
The level of expressed mRNA in the presence of chemical substance/The level of expressed mRNA in the absence of chemical substance (yeast gene YHR132C): 1.0
The level of expressed mRNA in the presence of chemical substance/The level of expressed mRNA in the absence of chemical substance (yeast gene YHR139C): 1.3
The level of expressed mRNA in the presence of chemical substance/The level of expressed mRNA in the absence of chemical substance (yeast gene YHR142W): 1.3

Reference: patent US8192962B2, “Processes for detecting toxic substances” (Daikin Industries, Ltd., priority 2001, dated 2012)
